Source: ChEMBL document CHEMBL4609974, “Triazole derivatives and their antiplasmodial and antimalarial activities” (Eur J Med Chem, 2019)
≈ marks a conversion by molar mass, not a printed value. Values belong to the compound of their own block, whether it stands above or below them.

Tests used:
[1] = test system: Plasmodium falciparum; assay: Antimalarial activity against chloroquine-sensitive Plasmodium falciparum 3D7; type: functional, organism-based
[2] = test system: Plasmodium falciparum; assay: Antimalarial activity against chloroquine-resistant Plasmodium falciparum W2; type: functional, organism-based
[3] = test system: Plasmodium falciparum; assay: Antimalarial activity against chloroquine-sensitive Plasmodium falciparum D6; type: functional, organism-based
[4] = test system: Plasmodium falciparum; assay: Antimalarial activity against chloroquine-resistant Plasmodium falciparum […]; type: functional, organism-based
[5] = test system: Plasmodium falciparum; assay: Antimalarial activity against chloroquine-resistant Plasmodium falciparum K1; type: functional, organism-based
[6] = test system: Staphylococcus aureus; assay: Antimicrobial activity against Staphylococcus aureus; type: functional
[7] = test system: Enterococcus faecalis; assay: Antimicrobial activity against Enterococcus faecalis; type: functional
[8] = test system: Plasmodium falciparum; assay: Antimalarial activity against […] Plasmodium falciparum W2; type: functional, organism-based
[9] = Selectivity index, ratio of CC50 for human MRC5 cells assessed as reduction in cell viability to MIC for chloroquine-resistant Plasmodium falciparum K1; type: toxicity; conditions: read-out: Selectivity Index
[10] = test system: MRC5; assay: Cytotoxicity against human MRC5 cells assessed as reduction in cell viability; type: functional
[11] = Selectivity index, ratio of CC50 for human MRC5 cells assessed as reduction in cell viability to MIC for […]; type: toxicity; conditions: read-out: Selectivity Index
[12] = test system: PC-3; assay: Cytotoxicity against human PC3 cells assessed as reduction in cell viability; type: functional, cell-based

IC50 [1]: 0.142 to 28 µM
SMILES: COc1ccc2cc3[n+](cc2c1OCc1cn(-c2ccc(S(=O)(=O)Nc4ccc([N+](=O)[O-])cc4)cc2)nn1)CCc1cc2c(cc1-3)OCO2

SMILES: CC(=O)c1ccc(OCc2cn(CCCNc3ccnc4cc(Cl)ccc34)nn2)cc1
IC50 [2]: 1.14 µM
IC50 [3]: 0.59 µM

SMILES: Cc1nnc(Cn2cc(C(=O)NNC(=S)Nc3ccccc3)c(=O)c3cc(F)c(Cl)cc32)n1N
IC50 [4]: 3.91 µM

SMILES: Clc1ccc2c(NCCn3cc(COc4ccc(Br)cc4)nn3)ccnc2c1
IC50 [2]: 0.9 to 11.5 µM
IC50 [3]: 0.9 to 11.5 µM

SMILES: Fc1ccc(-c2nc3ccc(N(Cc4cn(-c5ccc(F)cc5)nn4)Cc4cn(-c5ccc(F)cc5)nn4)cc3nc2-c2ccc(F)cc2)cc1
IC50 [5]: 9.76 to 3540 µM

SMILES: Cc1cccc(OCc2cn(CCNc3ccnc4cc(Cl)ccc34)nn2)c1
IC50 [2]: 0.9 to 11.5 µM
IC50 [3]: 0.9 to 11.5 µM

SMILES: O=[N+]([O-])c1cccc(-n2cc(CN(Cc3cn(-c4cccc([N+](=O)[O-])c4)nn3)c3ccc4nc(-c5ccccc5)c(-c5ccccc5)nc4c3)nn2)c1
IC50 [5]: 9.76 to 3540 µM

SMILES: c1ccc(-c2nc3ccc(N(Cc4cn(-c5ccccc5)nn4)Cc4cn(-c5ccccc5)nn4)cc3nc2-c2ccccc2)cc1
IC50 [5]: 9.76 to 3540 µM

SMILES: CC[C@H]1OC(=O)C[C@@H](O)[C@H](C)C(O[C@@H]2O[C@H](C)[C@@H](O)[C@H](N(C)C)[C@H]2O)C(CC=O)C[C@@H](C)C(=N\OCc2cn(-c3cnc4ccccc4c3)nn2)/C=C/C(C)=C/[C@@H]1CO[C@@H]1O[C@H](C)[C@@H](O)[C@@H](OC)[C@H]1OC (stereo not given in full)
IC50 [5]: 2 µg/mL
MIC [6]: 0.5 to 1 µg/mL (≈ 0.502 to 1 µM)
MIC [7]: 0.5 to 1 µg/mL (≈ 0.502 to 1 µM)

SMILES: Clc1ccc2c(NCCn3cc(COc4c(Cl)cccc4Cl)nn3)ccnc2c1
IC50 [2]: 0.9 to 11.5 µM
IC50 [3]: 0.9 to 11.5 µM

IC50 [1]: 0.142 to 28 µM
SMILES: COc1ccc2cc3[n+](cc2c1OCc1cn(-c2ccc(S(N)(=O)=O)cc2)nn1)CCc1cc2c(cc1-3)OCO2

SMILES: COc1cccc(-n2cc(CN(Cc3cn(-c4cccc(OC)c4)nn3)c3ccc4nc(-c5ccc(F)cc5)c(-c5ccc(F)cc5)nc4c3)nn2)c1
IC50 [5]: 9.76 to 3540 µM

SMILES: Cc1ccc(-n2cc(CNc3ccc4nc(-c5ccc(F)cc5)c(-c5ccc(F)cc5)nc4c3)nn2)cc1
IC50 [5]: 7.1 to 153 µM

SMILES: c1ccc(-c2nc3ccc(NCc4cn(-c5ccccc5)nn4)cc3nc2-c2ccccc2)cc1
IC50 [5]: 7.1 to 153 µM

SMILES: Cc1cc(OCc2cn(CCNc3ccnc4cc(Cl)ccc34)nn2)ccc1Cl
IC50 [2]: 0.9 to 11.5 µM
IC50 [3]: 0.9 to 11.5 µM

SMILES: COc1cccc(-n2cc(CNc3ccc4nc(-c5ccc(F)cc5)c(-c5ccc(F)cc5)nc4c3)nn2)c1
IC50 [5]: 7.1 to 153 µM

SMILES: OCc1cn(CCCNc2ccnc3cc(Cl)ccc23)nn1
IC50 [2]: 0.59 to 4.71 µM
IC50 [3]: 0.59 to 4.71 µM

SMILES: Cc1ccc(OCc2cn(CCNc3ccnc4cc(Cl)ccc34)nn2)cc1
IC50 [2]: 0.9 to 11.5 µM
IC50 [3]: 0.9 to 11.5 µM

SMILES: C[C@@H]1CC[C@H]2[C@@H](C)C(=O)O[C@@H]3O[C@@]4(C)CC[C@@H]1[C@]32OO4 [ARTEMISININ]
IC50 [2]: 0.25 µM
IC50 [3]: 0.03 µM

SMILES: OC1(c2cn(CCCNc3ccnc4cc(Cl)ccc34)nn2)CCCCC1
IC50 [2]: 0.59 to 4.71 µM
IC50 [3]: 0.59 to 4.71 µM

SMILES: O=C(CSc1nnc(Cc2ccccc2)n1-c1ccc(Cl)cc1)N1CCc2ccccc21
IC50 [8]: 48.8 µM
IC50 [2]: 48.8 µM

SMILES: O=C(CSc1nnc(Cc2ccccc2)n1-c1ccccc1)N1CCc2ccccc21
IC50 [8]: 4.59 µM
IC50 [2]: 4.59 µM

SMILES: Cc1ccc(-n2cc(CNc3ccc4nc(-c5ccccc5)c(-c5ccccc5)nc4c3)nn2)cc1
IC50 [5]: 7.1 to 153 µM

SMILES: Fc1ccc(-n2cc(CN(Cc3cn(-c4ccc(F)cc4)nn3)c3ccc4nc(-c5ccccc5)c(-c5ccccc5)nc4c3)nn2)cc1
IC50 [5]: 9.76 to 3540 µM

SMILES: Fc1ccc(-c2nc3ccc(NCc4cn(-c5ccc(F)cc5)nn4)cc3nc2-c2ccc(F)cc2)cc1
IC50 [5]: 7.1 to 153 µM

SMILES: Fc1ccc(-c2nc3ccc(N(Cc4cn(-c5cccc(C(F)(F)F)c5)nn4)Cc4cn(-c5cccc(C(F)(F)F)c5)nn4)cc3nc2-c2ccc(F)cc2)cc1
IC50 [5]: 9.76 to 3540 µM

SMILES: Cc1ccc(-n2cc(CN(Cc3cn(-c4ccc(C)cc4)nn3)c3ccc4nc(-c5ccc(F)cc5)c(-c5ccc(F)cc5)nc4c3)nn2)cc1
IC50 [5]: 9.76 to 3540 µM

SMILES: Fc1ccc(-c2nc3ccc(N(Cc4cn(-c5ccccc5)nn4)Cc4cn(-c5ccccc5)nn4)cc3nc2-c2ccc(F)cc2)cc1
IC50 [5]: 9.76 to 3540 µM

SMILES: COc1cccc(-n2cc(CNc3ccc4nc(-c5ccccc5)c(-c5ccccc5)nc4c3)nn2)c1
IC50 [5]: 7.1 to 153 µM

SMILES: O=C(c1cn(CCNc2ccnc3cc(Cl)ccc23)nn1)C1CCCCO1 (stereo not given)
IC50 [2]: 0.9 to 11.5 µM
IC50 [3]: 0.9 to 11.5 µM

SMILES: Fc1ccc(-c2nc3ccc(NCc4cn(-c5cccc(C(F)(F)F)c5)nn4)cc3nc2-c2ccc(F)cc2)cc1
IC50 [5]: 7.1 to 153 µM

SMILES: CC(C)c1ccc(OCc2cn(CCNc3ccnc4cc(Cl)ccc34)nn2)cc1
IC50 [2]: 0.9 to 11.5 µM
IC50 [3]: 0.9 to 11.5 µM

IC50 [1]: 0.142 to 28 µM
SMILES: COc1ccc2cc3[n+](cc2c1OCc1cn(-c2ccc(S(=O)(=O)N4CCCCC4)cc2)nn1)CCc1cc2c(cc1-3)OCO2

SMILES: Clc1ccc2c(NCCn3cc(COc4ccc5ccccc5c4)nn3)ccnc2c1
IC50 [2]: 0.9 to 11.5 µM
IC50 [3]: 0.9 to 11.5 µM

SMILES: Clc1ccc2c(NCCCn3cc(COc4ccc5ccccc5c4)nn3)ccnc2c1
IC50 [2]: 0.59 to 4.71 µM
IC50 [3]: 0.59 to 4.71 µM

IC50 [1]: 0.142 to 28 µM
SMILES: COc1ccc2cc3[n+](cc2c1OCc1cn(-c2ccc(S(=O)(=O)N4CCOCC4)cc2)nn1)CCc1cc2c(cc1-3)OCO2

SMILES: CC[C@H]1OC(=O)C[C@@H](O)[C@H](C)C(O[C@@H]2O[C@H](C)[C@@H](O)[C@H](N(C)C)[C@H]2O)C(CC=O)C[C@@H](C)C(=N\OCCCc2cn(-c3cnc4ccccc4c3)nn2)/C=C/C(C)=C/[C@@H]1CO[C@@H]1O[C@H](C)[C@@H](O)[C@@H](OC)[C@H]1OC (stereo not given in full)
IC50 [5]: 0.73 µg/mL
selectivity ratio [9]: 59
MIC [6]: 0.5 to 1 µg/mL (≈ 0.489 to 0.977 µM)
CC50 [10]: 43 µg/mL (≈ 42 µM)
selectivity ratio [11]: 59
MIC [7]: 0.5 to 1 µg/mL (≈ 0.489 to 0.977 µM)

IC50 [1]: 0.142 to 28 µM
SMILES: COc1ccc2cc3[n+](cc2c1OCc1cn(-c2ccc(S(=O)(=O)Nc4ccc(F)cc4)cc2)nn1)CCc1cc2c(cc1-3)OCO2

SMILES: FC(F)(F)c1cccc(-n2cc(CNc3ccc4nc(-c5ccccc5)c(-c5ccccc5)nc4c3)nn2)c1
IC50 [5]: 7.1 to 153 µM

SMILES: COc1cccc(-n2cc(CN(Cc3cn(-c4cccc(OC)c4)nn3)c3ccc4nc(-c5ccccc5)c(-c5ccccc5)nc4c3)nn2)c1
IC50 [5]: 9.76 to 3540 µM

SMILES: Cc1nnc(Cn2cc(C(=O)NNC(=O)Nc3ccccc3)c(=O)c3cc(F)c(Cl)cc32)n1N
IC50 [4]: 3.89 µM

SMILES: Fc1ccc(-n2cc(CNc3ccc4nc(-c5ccccc5)c(-c5ccccc5)nc4c3)nn2)cc1
IC50 [5]: 7.1 to 153 µM

IC50 [1]: 0.142 to 28 µM
SMILES: COc1ccc2cc3[n+](cc2c1OCc1cn(-c2ccc(S(=O)(=O)Nc4ccc(Br)cc4)cc2)nn1)CCc1cc2c(cc1-3)OCO2

SMILES: O=[N+]([O-])c1ccc(OCc2cn(CCNc3ccnc4cc(Cl)ccc34)nn2)cc1
IC50 [2]: 0.9 to 11.5 µM
IC50 [3]: 0.9 to 11.5 µM

SMILES: Clc1ccc(OCc2cn(CCNc3ccnc4cc(Cl)ccc34)nn2)cc1
IC50 [2]: 0.9 to 11.5 µM
IC50 [3]: 0.9 to 11.5 µM

IC50 [1]: 0.142 to 28 µM
SMILES: COc1ccc2cc3[n+](cc2c1OCc1cn(-c2ccc(S(=O)(=O)Nc4ccccc4)cc2)nn1)CCc1cc2c(cc1-3)OCO2

SMILES: OC1(c2cn(CCNc3ccnc4cc(Cl)ccc34)nn2)CCCCC1
IC50 [2]: 0.9 to 11.5 µM
IC50 [3]: 0.9 to 11.5 µM

IC50 [1]: 0.142 to 28 µM
SMILES: COc1ccc(NS(=O)(=O)c2ccc(-n3cc(COc4c(OC)ccc5cc6[n+](cc45)CCc4cc5c(cc4-6)OCO5)nn3)cc2)cc1

SMILES: Cc1ccc(OCc2cn(CCNc3ccnc4cc(Cl)ccc34)nn2)cc1C
IC50 [2]: 0.9 to 11.5 µM
IC50 [3]: 0.9 to 11.5 µM

SMILES: COc1ccc(OCc2cn(CCNc3ccnc4cc(Cl)ccc34)nn2)cc1
IC50 [2]: 0.9 to 11.5 µM
IC50 [3]: 0.9 to 11.5 µM

SMILES: OCc1cn(CCNc2ccnc3cc(Cl)ccc23)nn1
IC50 [2]: 0.9 to 11.5 µM
IC50 [3]: 0.9 to 11.5 µM

SMILES: CC(=O)c1ccc(OCc2cn(CCNc3ccnc4cc(Cl)ccc34)nn2)cc1
IC50 [2]: 0.9 to 11.5 µM
IC50 [3]: 0.9 to 11.5 µM

SMILES: O=[N+]([O-])c1cccc(-n2cc(CN(Cc3cn(-c4cccc([N+](=O)[O-])c4)nn3)c3ccc4nc(-c5ccc(F)cc5)c(-c5ccc(F)cc5)nc4c3)nn2)c1
IC50 [5]: 9.76 to 3540 µM

IC50 [1]: 0.142 to 28 µM
SMILES: COc1ccc2cc3[n+](cc2c1OCc1cn(-c2ccc(S(=O)(=O)N4CCN(C)CC4)cc2)nn1)CCc1cc2c(cc1-3)OCO2

SMILES: Fc1ccc(-c2nc3ccc(NCc4cn(-c5ccccc5)nn4)cc3nc2-c2ccc(F)cc2)cc1
IC50 [5]: 7.1 to 153 µM

SMILES: O=[N+]([O-])c1cccc(-n2cc(CNc3ccc4nc(-c5ccccc5)c(-c5ccccc5)nc4c3)nn2)c1
IC50 [5]: 7.1 to 153 µM

IC50 [1]: 0.142 to 28 µM
SMILES: COc1ccc2cc3[n+](cc2c1OCc1cn(-c2ccc(S(=O)(=O)Nc4ccc(Cl)cc4)cc2)nn1)CCc1cc2c(cc1-3)OCO2
IC50 [12]: 0.142 µM

SMILES: FC(F)(F)c1cccc(-n2cc(CN(Cc3cn(-c4cccc(C(F)(F)F)c4)nn3)c3ccc4nc(-c5ccccc5)c(-c5ccccc5)nc4c3)nn2)c1
IC50 [5]: 9.76 to 3540 µM

SMILES: O=[N+]([O-])c1cccc(-n2cc(CNc3ccc4nc(-c5ccc(F)cc5)c(-c5ccc(F)cc5)nc4c3)nn2)c1
IC50 [5]: 7.1 to 153 µM

SMILES: Cc1ccc(-n2cc(CN(Cc3cn(-c4ccc(C)cc4)nn3)c3ccc4nc(-c5ccccc5)c(-c5ccccc5)nc4c3)nn2)cc1
IC50 [5]: 9.76 to 3540 µM
